Measured values from paper PMC9655717, “New Molecules of Diterpene Origin with Inhibitory Properties toward α-Glucosidase” (International Journal of Molecular Sciences, 2022).
In brackets after ≈: the same amount, converted by molar mass. Where two headings read alike, the source gives them in different places.

Experiments:
[1] = target: T1, yeast α-GLy (α-glucosidase, Sigma G0660) (Saccharomyces cerevisiae, UniProt P53341); assay: biochemical; format: biochemical; conditions: yeast α-glucosidase; for IC50: 37°C, pH 6.8
T1 construct: purchased Sigma G0660
Description: S1. Materials and Methods […]
glucosidase inhibition assay. α-Glucosidase enzyme inhibition assay was carried out in a 96-well microplate. The method’s principle based on the hydrolyzed reaction of 4-nitrophenyl-α-D-glucopiranoside with α-glucosidase enzyme into yellow 4- […]
p-Nitrophenyl α-D-Glucoside a- Gl ucosidas e α-D-Glucose + p- Nitrophenol α-Glucosidase inhibitory activity assay was performed following the modified method of Pistia Brueggeman and Hollingsworth with slight modification. Quinopimaric […]
concentrations of 256, 64, 16, 4 and 1 µg/mL. In a 96-well plate, a reaction mixture containing 20 μL of phosphate buffer (100 mM; pH 6.8), 20 μL of α-glucosidase (0.3 U/mL, Sigma G0660) (this concentration was determined by a series of α-glucosidase […]
linearity between the enzyme concentration and the absorbance of yellow color mixture after reaction which was approximately 5-fold higher than the back ground and at least […]
concentrations was pre-incubated for 10 min at 37°C. Then 20 μL of […] p-nitrophenyl α-D-glucopyranoside (Sigma N1377) was added to the mixture as a substrate. After further incubation at 37°C for 30 min, the reaction was stopped by adding 80 μL of 0.1 […]
solution were prepared using the phosphate buffer […]; pH 6.8. […]
as a positive control and water as negative control. The yellow color produced was quantitated by colorimetric analysis and reading the absorbance at 410 nm. Each experiment was performed in triplicates, along with appropriate blanks. The solvent DMSO was use as negative control to evaluate its effect on α-glucosidase activity. […]
or substrate in negative control. Back ground was determined by volume of buffer as […]
The % inhibition has been obtained using the formula:
% inhibition = {Absorbance (control) –Absorbance (sample)}/Absorbance (control) IC50 value is defined as the concentration of samples inhibiting 50% of α-glucosidase activity under the stated assay conditions. […]

MTT cytotoxicity assay = conditions: human
Description: The cytotoxic activity of compounds was evaluated against four cancer cell lines KB, Hep-G2, Lu-1 and MCF-7, using colorimetric MTT assay. […]
MTT assay was used to determine the cytotoxic activity of compounds with human cancer cell lines acquired from the American Type Culture Collection (ATCC): epidermoid carcinoma (KB, ATCC number CCL-17), hepatocellular carcinoma (HepG2, ATCC number HB-8065), lung adenocarcinoma LU-1 (ATCC number HTB - 57TM), breast adenocarcinoma MCF-7 (ATCC number HTB - 22TM. Cells were cultured in medium DMEM supplemented with 10% Fetal bovine serum (FBS), 1% Penicillin and Streptomycin and 1% L-glutamine, under a humidified atmosphere of 5% CO2 at 37°C.
Compounds were dissolved in DMSO at 40 mg/mL and a series of dilutions for each compound was prepared to final concentrations of 256, 64, 16, 4 and 1 μg/mL. Cells were separated with trypsin and seeded in each well with 3 x10^4 cells per ml and were treated with sample different concentrations on 96-well plates. Untreated cells represented the controls. After 72h of treatment, an MTT solution (10 μl, 5 mg/mL) of phosphate buffer was added to each well for 4 h until intracellular purple formazan crystals are visible. Remove MTT and add DMSO solution (100 μL). The optical density of the solution was determined by Epoch™ Microplate Spectrophotometer at 540 nm. The inhibition ratio was calculated based on the optical densities from the three replicate […]
(§1) are evaluated to have cytotoxic activity.

[2] = DPPH radical scavenging assay; conditions: DPPH 0.1 mM in methanol, 25°C, 30 min
Description: DPPH radical scavenging assay as described by Ha. The hydrogen atom donating ability of the plant extractives was determined by the decolorization of methanol solution of 2,2-diphenyl-1-picrylhydrazyl (DPPH). DPPH produces purple color in methanol solution and fades to shades of yellow color in the presence of antioxidants. […]
DPPH (0.1 mM) was diluted in methanol. 200 μL of this solution was added to 1.3 μL of various concentrations of compounds in DMSO (256.0, 64.0, 16.0, and 4.0 μg/mL). The mixture was performed by a 96-well plate at 25 °C in 30 min. Then, absorbance was determined by Epoch™ Microplate Spectrophotometer (at 517 nm). The percentage of DPPH quenching activity was computed by the following formula:
Inhibitory percentage SC (%) = [(Ao - A1)/Ao] × 100. where AO was defined as the absorbance of control reaction, and A1 represented for the absorbance in the presence of test or standard sample. Each experiment was repeated three times. Quercetin was used as a reference compound. […]

[3] = system: Pseudomonas aeruginosa (ATCC 15442); assay: Antimicrobial broth microdilution; format: cell-based; conditions: ATCC15442, P. aeruginosa
Description: (§2) Table S2. The result of antimicrobial tests of compounds 38, 45, 48 and 50.
(§3) Gram (+) strains Gram (-) strains Fungi
(§4) Compound Values (µg/ml) S. aureus B. L. S. E. P. C. subtilis fermentum enterica coli aeruginosa albican
(§5) The antimicrobial activity was determined by broth microdilution method as reported by. Broth dilution testing is one of the common methods used for determination of the MICs and IC50. The compounds are examined for visible bacterial growth as evidenced by turbidity. […]
(§6) S1.5. In vitro antimicrobial activity study of compounds 38, 45, 48 and 50 The Gram-positive bacteria: Bacillus subtilis (ATCC 6633), Lactobacillus fermentum (N4), Staphylococcus aureus (ATCC 13709); Gram -negative bacteria: Escherichia coli (ATCC 25922), Pseudomonas aeruginosa (ATCC 15442), Salmonella enterica; Yeast: Candida albicans (ATCC 10231) were obtained from American Type Culture Collection. The bacterial […]
(§7) Sabourand 2% dextrose broth, were purchased from Merck. […]
(§8) remaining at –80 0 C. Before assay, they were activated by culture medium and, adjusted the concentration to 5x10^5 CFU/mL. 10 μL of each concentration of each test […]
(§9) further incubated at 37 °C within 16-24h. The experiment was triplicated. Positive […]
(§10) medium without bacteria as a negative control. Ampicillin was used as a reference […]
(§11) inhibiting 50% the visible growth of the tested microorganisms. MIC, IC50 values are typically expressed as molar concentration. […]
(§12) treated with sample different concentrations on 96-well plates. Untreated cells represented the controls. […]
(§13) crystals are visible. Remove MTT and add DMSO solution (100 μL). The optical density […]
as §1

[4] = system: Lactobacillus fermentum (N4); assay: Antimicrobial broth microdilution; format: cell-based; conditions: L. fermentum
Description: as §2, §3, §4, §5, §6, §7, §8, §9, §10, §11, §12, §13, §1

[5] = system: Staphylococcus aureus (ATCC 13709); assay: Antimicrobial broth microdilution; format: cell-based; conditions: ATCC13709, S. aureus
Description: as §2, §3, §4, §5, §6, §7, §8, §9, §10, §11, §12, §13, §1

[6] = system: Escherichia coli (ATCC 25922); assay: Antimicrobial broth microdilution; format: cell-based; conditions: ATCC25922, E. coli
Description: as §2, §3, §4, §5, §6, §7, §8, §9, §10, §11, §12, §13, §1

[7] = system: Bacillus subtilis (ATCC 6633); assay: Antimicrobial broth microdilution; format: cell-based; conditions: ATCC6633, B. subtilis
Description: as §2, §3, §4, §5, §6, §7, §8, §9, §10, §11, §12, §13, §1

Salmonella enterica = assay: Antimicrobial broth microdilution; format: cell-based; conditions: S. enterica
Description: as §2, §3, §4, §5, §6, §7, §8, §9, §10, §11, §12, §13, §1

[8] = system: Candida albicans (ATCC 10231); assay: Antimicrobial broth microdilution; format: cell-based; conditions: ATCC10231, C. albican
Description: as §2, §3, §4, §5, §6, §7, §8, §9, §10, §11, §12, §13, §1

[9] = IC50 ± SE, α-glucosidase inhibition

T1 sequence (P53341 whole entry): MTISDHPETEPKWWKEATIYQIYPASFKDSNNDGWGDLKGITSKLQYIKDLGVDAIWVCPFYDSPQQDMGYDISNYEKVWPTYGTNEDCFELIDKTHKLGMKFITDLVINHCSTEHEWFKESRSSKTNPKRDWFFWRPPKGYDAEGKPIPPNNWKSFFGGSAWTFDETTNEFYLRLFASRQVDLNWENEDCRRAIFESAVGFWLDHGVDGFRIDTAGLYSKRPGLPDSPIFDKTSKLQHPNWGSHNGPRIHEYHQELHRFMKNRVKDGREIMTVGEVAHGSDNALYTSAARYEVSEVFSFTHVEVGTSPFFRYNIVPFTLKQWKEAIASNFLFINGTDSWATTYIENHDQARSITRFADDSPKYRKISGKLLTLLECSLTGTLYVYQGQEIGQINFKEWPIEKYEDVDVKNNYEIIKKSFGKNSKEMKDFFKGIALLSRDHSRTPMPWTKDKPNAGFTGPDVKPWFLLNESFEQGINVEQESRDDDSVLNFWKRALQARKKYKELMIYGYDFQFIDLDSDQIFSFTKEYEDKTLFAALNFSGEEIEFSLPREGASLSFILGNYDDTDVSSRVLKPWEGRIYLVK

For Cc1[nH]c2c3c(c(O)cc2c1CO)[C@H]1C[C@@H]2[C@@]4(C)CCC[C@@](C)(CO)[C@@H]4CC[C@@]32C=C1C(C)C [Compound 38], the IC50 ([1]; read-out: IC50 ± SE, α-glucosidase inhibition) was 0.39 ± 0.03 µM, the IC50 at 72 h (MTT cytotoxicity assay; Hep-G2 hepatocellular carcinoma cells (ATCC HB-8065)) was 50.8 ± 1.2 µg/mL (≈ 110 µM) and the IC50 at 72 h (MTT cytotoxicity assay; KB epidermoid carcinoma cells (ATCC CCL-17)) was 39.5 ± 1 µg/mL (≈ 85.3 µM). For the same compound, the IC50 at 72 h (MTT cytotoxicity assay; Lu-1 lung adenocarcinoma cells (ATCC HTB-57)) was 58.1 ± 1.8 µg/mL (≈ 125 µM), the IC50 at 72 h (MTT cytotoxicity assay; MCF-7 breast adenocarcinoma cells (ATCC HTB-22)) was 60.4 ± 1.6 µg/mL (≈ 130 µM) and the “IC50 values, antioxidant test (DPPH)” value [2] was 227.76 ± 4.9 µg/mL (≈ 491 µM). The IC50 [3] was over 256 µg/mL, the MIC [3] was over 256 µg/mL and the IC50 [4] was over 256 µg/mL. It also gave an MIC [4] of over 256 µg/mL, an IC50 [5] of 34.3 ± 1.75 µg/mL (≈ 74 µM) and an MIC [5] of over 256 µg/mL. The IC50 [6] was over 256 µg/mL, the MIC [6] was over 256 µg/mL and the IC50 [7] was 102 ± 7.21 µg/mL (≈ 221 µM). The MIC [7] was 256 µg/mL (≈ 552 µM), the IC50 (Salmonella enterica) was over 256 µg/mL and the MIC (Salmonella enterica) was over 256 µg/mL. It also gave an IC50 [8] of over 256 µg/mL and an MIC [8] of over 256 µg/mL.

With CCOC(=O)c1c(C)[nH]c2c3c(c(O)cc12)C1CC2C3(C=C1C(C)C)CCC1C(C)(C(=O)O)CCCC12C (centres unmarked) [Compound 42, 1-Hydroxy-13-isopropyl-1′-(ethoxycarbonyl)-7,10a,2′-trimethyl-5,6,6b,7,8,9,10,10a, 10b,11,12,13-dodecahydro-12,4b-ethenophenanthro-[2,1-g]indole-7-carboxylic acid] the IC50 [1, 9] was 2.52 ± 0.34 µM, the “α-GLy inhibitory activity, in words” value [1] was “very good activity” and the melting point was 131 to 133 °C.

In the case of CCOC(=O)c1c(C)[nH]c2c3c(c(O)cc12)[C@H]1C[C@@H]2[C@@]4(C)CCC[C@@](C)(C(=O)OC)[C@@H]4CC[C@@]32C=C1C(C)C [Compound 43, Methyl 1-Hydroxy-13-Isopropyl-1′-(Ethoxycarbonyl)-7,10a,2′-Trimethyl-5,6,6b,7,8,9,10,10a,10b,11,12,13-Dodecahydro-12,4b-Ethenophenanthro-[2,1-g]indole-7-Carboxylate], the IC50 [1, 9] is reported as over 255 µM.

With Cc1[nH]c2c3c(c(O)cc2c1C#N)[C@H]1C[C@@H]2[C@@]4(C)CCC[C@@](C)(C(=O)O)[C@@H]4CC[C@@]32C=C1C(C)C [Compound 44, 1′-Cyano-1-hydroxy-13-isopropyl-7,10a,2′-trimethyl-5,6,6b,7,8,9,10,10a,10b,11,12,13-dodecahydro-12,4b-ethenophenanthro [2,1-g]indole-7-carboxylic acid] the IC50 [1, 9] was 68.22 ± 0.03 µM, the “α-GLy inhibitory activity, in words” value [1] was “very good activity” and the melting point was 127 to 129 °C.

C#CCOC(=O)C1(C)CCCC2(C)C1CCC13C=C(C(C)C)C(CC12)c1c(O)cc2c(C(=O)OCC)c(C)[nH]c2c13 (centres unmarked) [Compound 46, Ethyl 7-propynyl 1-hydroxy-13-isopropyl-7,10a,2′-trimethyl-5,6,6b,7,8,9,10,10a,10b, 11,12,13-dodecahydro-12,4b-ethenophenanthro [2,1-g]indole-7,1′-dicarboxylate] showed an IC50 [1, 9] of over 255 µM and a melting point of 98 to 100 °C.
